Source: patent US20090118194A1, “Measurement of melanocortin peptides and uses thereof” (Auckland UniServices Limited, priority 2002, published 2009)

Tested on: 3T3 L1 adipocytes
Experiment: Triglyceride release from 3T3 L1 adipocytes (peptide stimulation assay)
Type: cell-based, murine
Conditions: 4 hours, 2 assays combined
Procedure: • 2.1 The objective of this study was to determine the effects of a-MSH and desacetyl a-MSH on leptin and triglyceride production in murine 3T3 L1 adipocytes. • 2.2 Pre-adipocytes were seeded in 6-well plates and 2 days post confluence (Day 2) were differentiated with […] indomethacin+5 ug/mL insulin (described in previous documents). • 2.3 On Day 13 adipocytes were stimulated with 4 doses each of a-MSH and desacetyl a-MSH (or no peptide added) for 4 hours. • 2.4 Medium was removed from the wells and leptin and triglyceride levels measured. • 2.5 Intracytoplasmic lipid accumulation was measured by staining with Oil red O.
• 4.1 Medium=a-MEM+0.5% BSA (100 mL a-MEM+0.5 g BSA) • 4.2 Doses of a-MSH and da-MSH (stocks in −80° C. freezer=1 ug/ul), using MW of a-MSH. • 1 M=1665 g/L=1665 mg/mL • 1 mM=1.665 mg/mL • 1 uM=1.665 ug/mL • 1.665 ug/mL=3.3 ug/2 mL in each well • 1/10 dilution of 1 ug/ul (stock)=0.1 ug/ul. 33 ul=3.3 ug. • Prepare 1/10 dilution of freezer stock (1 ug/ul) to make 0.1 ug/ul, using a-MEM+0.5% BSA as diluent. • Make 3 serial dilutions of 1/10 to add 33 ul to each well in 6-well plate. • Doses are in triplicate wells, so require 3×33=99 ul for each dose.
• 5.1 Assay is performed on Day 14 after initiation of cell differentiation. […]

Sequence: SYSMEHFRWGKPV [desacetyl-α-MSH, non-acetylated form of α-MSH, obtained from Bachem]
- TRIGLYCERIDE RESPONSE, MEAN (100 nM): 111.4 % OF CONTROL
- TRIGLYCERIDE RESPONSE, MEAN (1000 nM): 110.0 % OF CONTROL
